This assay addresses T1, human type 1 glycine transporter (GlyT1) (Homo sapiens, UniProt P48067).
T1 construct: T98G cells (glioma cells) expressing human type 1 glycine transporter (GlyT1) were used
T1 sequence (P48067 1-706): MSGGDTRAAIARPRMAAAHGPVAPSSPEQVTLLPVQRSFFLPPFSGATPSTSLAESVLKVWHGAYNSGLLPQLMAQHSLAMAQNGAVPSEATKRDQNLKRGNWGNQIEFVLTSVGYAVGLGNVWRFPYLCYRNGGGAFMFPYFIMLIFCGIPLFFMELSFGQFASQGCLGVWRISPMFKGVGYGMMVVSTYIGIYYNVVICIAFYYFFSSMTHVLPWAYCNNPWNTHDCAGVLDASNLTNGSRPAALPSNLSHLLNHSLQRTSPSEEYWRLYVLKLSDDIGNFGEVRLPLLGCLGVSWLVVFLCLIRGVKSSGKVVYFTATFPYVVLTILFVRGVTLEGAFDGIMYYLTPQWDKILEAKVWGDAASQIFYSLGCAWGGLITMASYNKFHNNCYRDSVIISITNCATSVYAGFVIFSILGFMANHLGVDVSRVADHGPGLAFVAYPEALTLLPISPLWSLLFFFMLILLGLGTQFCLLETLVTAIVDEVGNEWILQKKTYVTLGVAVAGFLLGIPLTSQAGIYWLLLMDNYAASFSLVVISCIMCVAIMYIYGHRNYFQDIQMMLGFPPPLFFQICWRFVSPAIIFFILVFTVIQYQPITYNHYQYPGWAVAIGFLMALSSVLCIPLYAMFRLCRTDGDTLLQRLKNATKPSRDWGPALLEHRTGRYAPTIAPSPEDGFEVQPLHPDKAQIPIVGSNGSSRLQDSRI
Nature of the assay: Glycine uptake inhibition experiment ([3H]glycine uptake). It counts as cell-based. The settings on record: GlyT1. The procedure, abridged:
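T98G glioma cells expressing human GlyT1 were pretreated 10 min with compound in HEPES buffer pH 7.4 (0.2% BSA), then incubated with compound plus 250 nM final [3H]glycine for 15 min at room temperature. Intracellular radioactivity was counted after NaOH lysis; 10 μM ALX5407 defined non-specific uptake. IC50 came from 10^−9–10^−5 M curves.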

Molecules are shown by their SMILES.

Here are results for 6 compounds from patent US20160130278A1 (TAISHO PHARMACEUTICAL CO., LTD, priority 2013, published 2016).

Consider `O=C(NC(c1cc(Cl)ccn1)C1(O)CCC(F)(F)CC1)c1cccc(C(F)(F)F)c1Cl` (single isomer, unassigned) [Compound 351, 2-chloro-N-[(4-chloropyridin-2-yl)(4,4-difluoro-1-hydroxycyclohexyl)methyl]-3-(trifluoromethyl)benzamide], for which the IC50 is 150 nM.
Regarding `O=C(NC(c1cccc(F)c1Cl)[C@]1(O)CC[C@@H](F)CC1)c1ccc(Cl)nc1-n1nccn1` (single isomer, unassigned) [Compound 370, 6-chloro-N-[(2-chloro-3-fluorophenyl)(cis-4-fluoro-1-hydroxycyclohexyl)methyl]-2-(2H-1,2,3-triazol-2-yl)pyridine-3-carboxamide], half-maximal inhibition (IC50) was put at 3000 nM.
Turning to `CCn1cc(-c2cccc(C(NC(=O)c3c(Cl)ccc(C(F)(F)F)c3Cl)C3(O)CCC(F)(F)CC3)c2)cn1` (single isomer, unassigned) [Compound 222, 2,6-dichloro-N-{(4,4-difluoro-1-hydroxycyclohexyl)[3-(1-ethyl-1H-pyrazol-4-yl)phenyl]methyl}-3-(trifluoromethyl)benzamide], half-maximal inhibition (IC50) was put at 190 nM.
With `CCn1cc(-c2cccc(C(NC(=O)c3cc(Cl)ccc3Cl)C3(O)CCC(F)(F)CC3)c2)cn1` (stereo not drawn) [Compound 127, 2,5-dichloro-N-{(4,4-difluoro-1-hydroxycyclohexyl)[3-(1-ethyl-1H-pyrazol-4-yl)phenyl]methyl}benzamide] the figure was 660 nM; with `O=C(NC(c1cccc(F)c1Cl)[C@]1(O)CC[C@@H](F)CC1)c1c(Cl)cccc1C(F)(F)F` (single isomer, unassigned) [Compound 306, 2-chloro-N-[(2-chloro-3-fluorophenyl)(cis-4-fluoro-1-hydroxycyclohexyl)methyl]-6-(trifluoromethyl)benzamide], 670 nM; with `O=C(N[C@@H](c1cccc(Br)c1)C1(O)CCCC1)c1cccc(C(F)(F)F)c1Cl` [Compound 64, N-[(S)-(3-bromophenyl)(1-hydroxycyclopentyl)methyl]-2-chloro-3-(trifluoromethyl)benzamide], 75 nM.
